One may read the melting point as the temperature, or range, at which the solid turns liquid.

For `CC(C)(C)c1ccc(-c2[nH]c3nccnc3c2CCCO)cc1` [Example 26, 3-[6-(4-tert-Butyl-phenyl)-5H-pyrrolo[2,3-b]pyrazin-7-yl]-propan-1-ol], the melting point lay in the range of 187 to 189 °C.
`COc1ccc2c(c1)c(-c1cc3nccnc3[nH]1)cn2CC(=O)N1CCOCC1` [Example 12, 2-[5-Methoxy-3-(5H-pyrrolo[2,3-b]pyrazin-6-yl)-indol-1-yl]-1-morpholin-4-yl-ethanone] showed a melting point of 263 to 267 °C.
To `c1cncc(OCCCn2cc(-c3cc4nccnc4[nH]3)c3ccccc32)c1` [Example 6, 6-{1-[3-(Pyridin-3-yloxy)-propyl]-1H-indol-3-yl}-5H-pyrrolo[2,3-b]pyrazine] belongs 208 to 209 °C; to `Cn1cc(-c2cc3cccnc3[nH]2)c2cc(N)ccc21` [Example 18, 1-Methyl-3-(1H-pyrrolo[2,3-b]pyridin-2-yl)-1H-indol-5-ylamine], 247 to 248 °C; to `COc1ccc2[nH]cc(-c3cc4nccnc4[nH]3)c2c1` [Example 11, 6-(5-Methoxy-1H-indol-3-yl)-5H-pyrrolo[2,3-b]pyrazine], 268 to 271 °C.
The figure for `CCOC(=O)COc1cc(-c2cc3nccnc3[nH]2)ccc1OC` [Example 27, [2-Methoxy-5-(5H-pyrrolo[2,3-b]pyrazin-6-yl)-phenoxy]acetic acid ethyl ester] is 183 to 184 °C.

The values are drawn from US7227020B2, “Azaindoles” (Aventis Pharma Limited, priority 1999, dated 2007).
